Results taken from patent publication US7381729B2, “4-(4-trans-hydroxycyclohexyl)amino-2-phenyl-7H-pyrrolo [2,3D] pyrimidine hydrogen mesylate, its polymorphic forms, and methods for making same” (Solvay Pharmaceuticals B.V., priority 2003, dated 2008).
Values after ≈ are worked out from the molar mass of the structure shown. Each block holds one molecule with its values, some of them ahead of it.

Key:
[1] = Solubility in gastrointestinal fluids; assay type: physicochemical
[2] = Solubility by shake flask method (OECD guideline No. 105) in purified water; conditions: 25° C.
Method: Solubility measurements were carried out with the shake flask method according to the OECD guideline at 25° C.

[3] = Relative stability of the polymorphic forms; assay type: physicochemical; conditions: form α versus form β
[4] = Stability at ambient conditions; assay type: physicochemical

solubility in gastrointestinal fluids (in words) [1]: low solubility | Solubility [2]: 5.9 ng/mL (≈ 0.0191 µM)
SMILES: O[C@H]1CC[C@H](Nc2nc(-c3ccccc3)nc3[nH]ccc23)CC1 [Base, 4-(4-trans-hydroxy-cyclohexyl)amino-2-phenyl-7H-pyrrolo[2,3d]pyrimidine]

polymorphic stability (in words) [3]: metastable with respect to form β
SMILES: CS(=O)(=O)O.OC1CCC(Nc2nc(-c3ccccc3)nc3[nH]ccc23)CC1 (stereo not drawn) [Polymorph α, 4-(4-trans-hydroxy-cyclohexyl)amino-2-phenyl-7H-pyrrolo[2,3d]pyrimidine mesylate]

polymorphic stability (in words) [3]: stable form
SMILES: CS(=O)(=O)O.OC1CCC(Nc2nc(-c3ccccc3)nc3[nH]ccc23)CC1 (stereo not drawn) [Polymorph β, 4-(4-trans-hydroxy-cyclohexyl)amino-2-phenyl-7H-pyrrolo[2,3d]pyrimidine mesylate]

stability at ambient conditions (in words) [4]: very stable
SMILES: CS(=O)(=O)O.OC1CCC(Nc2nc(-c3ccccc3)nc3[nH]ccc23)CC1 (stereo not drawn) [mesylate salt, 4-(4-trans-hydroxy-cyclohexyl)amino-2-phenyl-7H-pyrrolo[2,3d]-pyrimidine mesylate]
